Data published in ChEMBL document CHEMBL1201862, “PubChem BioAssay data set” (2004).
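Cells were grown in 96-well plates and exposed to each compound for 48 hours at five concentrations; endpoints were interpolated linearly between bracketing concentrations, or set to the highest concentration if not reached. Abbreviation: GI50, concentration required for 50% inhibition of growth.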 Activity calls are given as the source filed them. No stated cut-off is given here; in the data, active = GI50 up to about 1.1 µM and inactive = higher.

Key:
Test in all cases: DTP human tumour cell line panel, 48 h
SF-295 = system: SF-295
LOX IMVI = system: LOX IMVI
HCT-116 = system: HCT-116
COLO 205 = system: COLO 205
OVCAR-5 = system: OVCAR-5
OVCAR-8 = system: OVCAR-8
PC-3 = system: PC-3
UO-31 = system: UO-31
RPMI-8226 = system: RPMI-8226
HT-29 = system: HT-29
SK-MEL-28 = system: SK-MEL-28
786-0 = system: 786-0
UACC-257 = system: UACC-257
MCF7 = system: MCF7
SF-539 = system: SF-539
Hs-578T = system: Hs-578T
Malme-3M = system: Malme-3M
NCI-H522 = system: NCI-H522

Measured: GI50

O=C(O)C(=O)Cc1ccc2c(c1)OCO2
inactive: SF-295 > 100 µM | LOX IMVI > 100 µM | HCT-116 > 100 µM | COLO 205 > 100 µM | OVCAR-5 > 100 µM | OVCAR-8 > 100 µM | PC-3 > 100 µM | UO-31 > 100 µM | RPMI-8226 > 100 µM | HT-29 > 100 µM | SK-MEL-28 > 100 µM | 786-0 > 100 µM | UACC-257 > 100 µM | MCF7 > 100 µM | SF-539 > 100 µM

O=C(/C=C/c1ccc2c(c1)OCO2)NCc1ccco1
inactive: SF-295 > 100 µM | LOX IMVI > 100 µM | HCT-116 > 100 µM | COLO 205 > 100 µM | OVCAR-5 > 100 µM | Hs-578T > 100 µM | OVCAR-8 > 100 µM | PC-3 > 100 µM | UO-31 67.1 µM | HT-29 > 100 µM | SK-MEL-28 > 100 µM | 786-0 > 100 µM | Malme-3M > 100 µM | UACC-257 > 100 µM | MCF7 39.7 µM | SF-539 64.9 µM

COP(=O)(OC)C(C)(C)NC(=O)NC(F)(F)F
inactive: SF-295 > 100 µM | LOX IMVI > 100 µM | HCT-116 > 100 µM | COLO 205 > 100 µM | OVCAR-5 > 100 µM | Hs-578T 31.1 µM | OVCAR-8 > 100 µM | PC-3 > 100 µM | UO-31 > 100 µM | RPMI-8226 > 100 µM | HT-29 > 100 µM | SK-MEL-28 > 100 µM | 786-0 > 100 µM | Malme-3M > 100 µM | UACC-257 > 100 µM | MCF7 > 100 µM | SF-539 > 100 µM

CCNC1=C(NC(=O)c2ccccc2)C(=O)c2ccccc2C1=O
inactive: SF-295 32.4 µM | NCI-H522 11.2 µM | HCT-116 25.8 µM | COLO 205 16.6 µM | OVCAR-5 > 100 µM | Hs-578T 38.7 µM | OVCAR-8 46.8 µM | PC-3 18.2 µM | RPMI-8226 > 100 µM | HT-29 36.6 µM | SK-MEL-28 39.3 µM | 786-0 > 100 µM | Malme-3M 16.8 µM | UACC-257 23.4 µM | MCF7 32.1 µM | SF-539 48.8 µM

O=c1[nH]nc(-c2ccccc2)n1-c1cccc([N+](=O)[O-])c1
inactive: SF-295 > 100 µM | NCI-H522 > 100 µM | LOX IMVI > 100 µM | HCT-116 > 100 µM | COLO 205 > 100 µM | OVCAR-5 > 100 µM | Hs-578T > 100 µM | OVCAR-8 > 100 µM | UO-31 38.5 µM | RPMI-8226 > 100 µM | HT-29 > 100 µM | SK-MEL-28 > 100 µM | 786-0 > 100 µM | Malme-3M > 100 µM | UACC-257 > 100 µM | MCF7 > 100 µM | SF-539 > 100 µM

O=C(O)c1nc2ccc(C(F)(F)F)cc2nc1NCc1ccc(F)cc1
inactive: SF-295 23.5 µM | LOX IMVI 15.6 µM | HCT-116 15.9 µM | COLO 205 21.5 µM | OVCAR-5 22.4 µM | OVCAR-8 21.5 µM | PC-3 26.5 µM | UO-31 2.75 µM | RPMI-8226 21 µM | SK-MEL-28 40.8 µM | 786-0 14.9 µM | UACC-257 22.4 µM | MCF7 22.9 µM | SF-539 20.1 µM

N[C@@H](Cc1ccc2oc3cc(=O)c4ccccc4c-3nc2c1)C(=O)O
inactive: SF-295 30.4 µM | NCI-H522 39.7 µM | LOX IMVI 37.8 µM | HCT-116 > 100 µM | COLO 205 11.5 µM | OVCAR-5 > 100 µM | Hs-578T 45.8 µM | OVCAR-8 49 µM | UO-31 > 100 µM | RPMI-8226 > 100 µM | HT-29 31.5 µM | SK-MEL-28 62.4 µM | 786-0 > 100 µM | Malme-3M 3.37 µM | UACC-257 18.1 µM | MCF7 2.36 µM | SF-539 74 µM

O=C1CC2(CCNCC2)C(=O)N1N1CCCC1
inactive: SF-295 > 100 µM | NCI-H522 > 100 µM | LOX IMVI > 100 µM | HCT-116 > 100 µM | COLO 205 > 100 µM | OVCAR-5 > 100 µM | OVCAR-8 > 100 µM | PC-3 > 100 µM | UO-31 > 100 µM | RPMI-8226 > 100 µM | HT-29 > 100 µM | 786-0 > 100 µM | Malme-3M > 100 µM | UACC-257 > 100 µM | MCF7 > 100 µM | SF-539 > 100 µM

NC(=O)NCCCC(NC(=O)OCCCCCn1ccc(=O)[nH]c1=O)C(=O)O (centres undefined)
inactive: SF-295 > 100 µM | LOX IMVI > 100 µM | HCT-116 > 100 µM | COLO 205 > 100 µM | OVCAR-5 > 100 µM | Hs-578T > 100 µM | OVCAR-8 > 100 µM | PC-3 > 100 µM | UO-31 > 100 µM | RPMI-8226 > 100 µM | HT-29 > 100 µM | SK-MEL-28 > 100 µM | 786-0 > 100 µM | UACC-257 > 100 µM | MCF7 > 100 µM | SF-539 > 100 µM

Fc1ccc(C2(CCCN3CCc4[nH]c5cc(F)ccc5c4C3)OCCO2)cc1
inactive: SF-295 13.9 µM | LOX IMVI 12.6 µM | HCT-116 11.5 µM | COLO 205 8.75 µM | OVCAR-5 2.89 µM | Hs-578T 3.92 µM | OVCAR-8 17.7 µM | UO-31 3.33 µM | RPMI-8226 10.7 µM | HT-29 3.81 µM | SK-MEL-28 12.6 µM | 786-0 13.9 µM | Malme-3M 12.3 µM | UACC-257 4.71 µM | MCF7 10.6 µM | SF-539 12 µM

CC(=O)NC1C(OCc2ccccc2)OC(CO)C(O)C1OCC(=O)NC(C)C(=O)NC(CCC(=O)OCCNC(=O)c1cccc2cc3ccccc3nc12)C(N)=O (centres undefined)
inactive: SF-295 21.4 µM | NCI-H522 16.8 µM | LOX IMVI 11.2 µM | HCT-116 10.4 µM | COLO 205 21.3 µM | OVCAR-5 22.1 µM | OVCAR-8 18 µM | PC-3 27.4 µM | UO-31 14.5 µM | RPMI-8226 1.33 µM | HT-29 13 µM | SK-MEL-28 19.4 µM | 786-0 18.7 µM | Malme-3M 15.6 µM | UACC-257 28.2 µM | MCF7 25.2 µM

O=c1c2c(sc3ccccc13)NCN(CCc1ccccc1)C2
inactive: SF-295 20.7 µM | NCI-H522 31.7 µM | LOX IMVI 33.5 µM | HCT-116 23.4 µM | COLO 205 18.1 µM | OVCAR-5 81.5 µM | OVCAR-8 28.7 µM | PC-3 39.3 µM | UO-31 33.7 µM | RPMI-8226 19.9 µM | HT-29 18.4 µM | SK-MEL-28 34.9 µM | 786-0 29.7 µM | Malme-3M 43.7 µM | UACC-257 33.5 µM | MCF7 56.6 µM | SF-539 55.3 µM

Cc1n[nH]c(=O)n1/N=C/c1ccco1
inactive: SF-295 > 100 µM | HCT-116 > 100 µM | COLO 205 > 100 µM | OVCAR-5 > 100 µM | Hs-578T > 100 µM | OVCAR-8 > 100 µM | PC-3 > 100 µM | UO-31 > 100 µM | RPMI-8226 > 100 µM | HT-29 > 100 µM | SK-MEL-28 > 100 µM | 786-0 > 100 µM | Malme-3M > 100 µM | UACC-257 > 100 µM | MCF7 > 100 µM | SF-539 > 100 µM

CCCCCCCC/C=C/CCCCCCCC1CC(O)C(=O)O1 (centres undefined)
inactive: SF-295 30.7 µM | LOX IMVI 78.3 µM | HCT-116 41.1 µM | COLO 205 30.1 µM | OVCAR-5 > 100 µM | OVCAR-8 55.1 µM | PC-3 46.3 µM | UO-31 62.8 µM | RPMI-8226 25.8 µM | HT-29 33.4 µM | SK-MEL-28 72.3 µM | 786-0 42.4 µM | Malme-3M 54.1 µM | UACC-257 46.7 µM | MCF7 32.4 µM

CCCCCCCCCCCCCC(=O)O.O=CC(O)C(O)C(OC1OC(CO)C(O)C(O)C1O)C(O)CO (centres undefined)
inactive: SF-295 73.1 µM | NCI-H522 57.4 µM | HCT-116 > 100 µM | COLO 205 73.5 µM | OVCAR-5 > 100 µM | Hs-578T > 100 µM | OVCAR-8 > 100 µM | PC-3 73.5 µM | UO-31 > 100 µM | RPMI-8226 19.8 µM | HT-29 > 100 µM | SK-MEL-28 > 100 µM | 786-0 > 100 µM | Malme-3M 83.8 µM | UACC-257 > 100 µM | MCF7 > 100 µM | SF-539 > 100 µM

[N-]=[N+]=NC1=CC(=O)c2cccc3cccc1c23
inactive: SF-295 24.9 µM | LOX IMVI 17.3 µM | HCT-116 23.5 µM | COLO 205 49.7 µM | OVCAR-5 49.3 µM | Hs-578T 17.9 µM | PC-3 16.6 µM | UO-31 24.9 µM | RPMI-8226 56.6 µM | HT-29 34.6 µM | SK-MEL-28 33.3 µM | 786-0 31.9 µM | Malme-3M 31.4 µM | UACC-257 31.7 µM | MCF7 34.2 µM | SF-539 31 µM

Cc1ccn2c(CCc3nnc4cc(C)ccn34)nnc2c1
inactive: SF-295 > 100 µM | NCI-H522 > 100 µM | HCT-116 > 100 µM | COLO 205 > 100 µM | OVCAR-5 > 100 µM | Hs-578T > 100 µM | OVCAR-8 > 100 µM | PC-3 > 100 µM | UO-31 > 100 µM | RPMI-8226 > 100 µM | HT-29 > 100 µM | SK-MEL-28 > 100 µM | 786-0 > 100 µM | Malme-3M > 100 µM | UACC-257 > 100 µM | MCF7 > 100 µM | SF-539 > 100 µM
